# Columns and labels:
# [1] = tested on: fibrinogen deficient plasma; experiment: Thrombelastography in fibrinogen deficient plasma with added fibrinogen; type: biochemical, human
# Description: Plasma types, purified proteins and compounds. Prothrombin deficient plasma (George King Bio-Medical, Overland Park, Kans.) anticoagulated with sodium citrate was utilized for experimentation concerning the effects of CORM-2 on prothrombin. Purified prothrombin (Enzyme Research Laboratories, South Bend, Ind.) that was 95% pure (10.4 mg/mL, 11.1 U/mg, suspended in 20 mM Tris-HCl in 0.1M NaCl at pH 7.4) was used for experimentation. Fibrinogen deficient plasma (Affinity Biologicals, Inc., Ancaster, Ontario, Canada) anticoagulated with sodium citrate was used in experiments investigating the effects of CORM-2 on fibrinogen. […] CORM-2 and dimethyl sulfoxide (DMSO) were obtained from Sigma-Aldrich, St. Louis, Mo.
# Fibrinogen deficient plasma experiments. In these experiments, the final plasma sample mixture volume was 358.6 μL. Sample composition consisted of 260 μL of fibrinogen deficient plasma, 65 μL of pure fibrinogen solution, and dH2O to generate discrete fibrinogen concentrations subsequently described, 3.6 μL of DMSO or CORM-2 in DMSO (final CORM-2 concentration 0 or 100 μM, n=4 per fibrinogen concentration), 10 μL of tissue factor reagent (0.1% final concentration), and 20 μL of 200 mM CaCl2. The fibrinogen concentrations studied were 100, 200, 300, 400, 500, 600, and 800 mg/dL.
# Thrombelastographic monitoring. Plasma sample mixtures were placed in a disposable cup in a computer-controlled THROMBELASTOGRAPH® hemostasis system (Model 5000, Haemoscope Corp., Niles, Ill.), with addition of CaCl2 as the last step to initiate clotting. Data were collected until clot strength stabilized. The following previously described variables (Examples 1-3) were determined at 37° C.: Time to maximum rate of thrombus generation (TMRTG): This is the time interval (sec) observed prior to maximum speed of clot growth. […]
# Statistical Analyses. […] The difference between the mean values of MRTG or TTG in samples exposed to 0 or 100 μM CORM-2 were determined and expressed as percent difference secondary to CORM-2 exposure in the fibrinogen deficient plasma experiments.
# [2] = tested on: pooled normal plasma; experiment: Dilution-response thrombelastography in plasma diluted with NS or VOL (no tPA); type: biochemical, human
# Description: Plasma and volume expanders. Pooled normal plasma (George King Bio-Medical, Overland Park, Kans.) anticoagulated with sodium citrate was utilized for experimentation. […] The volume expanders tested were 0.9% NaCl (Abbott Laboratories, North Chicago, Ill.; also designated as NS) and 6% hydroxylethyl starch (HES) in 0.9% NaCl (VOLUVEN®, average molecular weight 130 kDa, 0.4 degree of substitution, C2:C6 ratio of substitution 11.2; Fresenius Kabi, Bad Homburg, Germany; also referred to as VOL).
# Plasma sample composition of dilution-response experiments. The final volume for all subsequently described plasma sample mixtures was 359.6 μL. Sample composition consisted of 326 μL of plasma/volume expander, 10 μL of tissue factor reagent (0.1% final concentration in dH2O; Instrumentation Laboratory, Lexington, Mass.), 3.6 μL of dimethyl sulfoxide (DMSO) or DMSO with CORM-2 (100 μM final concentration; Sigma-Aldrich, St. Louis, Mo.), and 20 μL of 200 mM CaCl2. Tissue factor stock was kept on ice prior to use and was remade every two hours. […] DMSO was added to dry CORM-2 just prior to placement into the plasma mixture. Plasma was diluted 0%, 20%, 30%, 40% or 50% with NS or VOL (n=4 per condition).
# Clot Lifespan Model (CLSM) Analyses. Plasma sample mixtures were placed in a disposable cup in a computer-controlled THROMBELASTOGRAPH® hemostasis system (Model 5000, Haemoscope Corp., Niles, Ill.), with addition of CaCl2 as the last step to initiate clotting. In the first series of experiments, no tPA was added, so data were collected until clot strength (maximum amplitude) was stable. In the second series of experiments which in tPA was added, data were collected until clot lysis time occurred. […] Additional elastic modulus-based parameters were determined and the nomenclature used to describe these phenomena is as follows: Time to maximum rate of thrombus generation (TMRTG): This is the time interval (sec) observed prior to maximum speed of clot growth. Maximum rate of thrombus generation (MRTG): This is the maximum velocity of clot growth observed (dynes/cm^2/sec). Total Thrombus Generation (TTG): This is the total area under the velocity curve during clot growth (dynes/cm^2), representing the amount of clot strength generated during clot growth. Time to maximum rate of lysis (TMRL): This is the time interval (sec) measured from the time of maximum strength to the time when the velocity of clot disintegration is maximal. Maximum Rate of Lysis (MRL): This is the maximum velocity of clot disintegration observed (−dynes/cm^2/sec). Area of Clot Lysis (ACL): This is the total area under the velocity curve during clot disintegration (−dynes/cm^2), representing the amount of clot strength lost during clot disintegration. As this model involves complete fibrinolysis, TTG is equivalent to ACL, so ACL was not presented as it provides no additional information.
# Statistical Analyses. Data obtained from pooled normal plasma not exposed to tPA were graphically represented with commercially available software (SigmaPlot 11.0, Systat Software, Inc., San Jose, Calif.), and kinetic modeling of thrombelastographic data performed with the same software. Analyses of the effects of hemodilution and CORM-2 on CLSM variables obtained from pooled normal plasma were conducted using Kruskal-Wallis one way analysis of variance with Student-Newman-Keuls post-hoc test. […] These analyses were conducted with the same commercially available software (SigmaPlot 11.0). A P value of <0.05 was considered significant.
# [3] = 100 μM vs 0 μM CORM-2, fibrinogen 300 mg/dL
# [4] = 20% dilution with VOL + 100 μM CORM-2, no tPA
# [5] = 30% dilution with VOL + 100 μM CORM-2, no tPA
# [6] = 40% dilution with VOL + 100 μM CORM-2, no tPA
# [7] = 50% dilution with VOL + 100 μM CORM-2, no tPA
# [8] = undiluted samples, no tPA, 100 μM CORM-2
compound,measurement,setting,value
"[C-]#[O+].[C-]#[O+].[C-]#[O+].[C-]#[O+].[C-]#[O+].[C-]#[O+].[Cl][Ru][Cl].[Cl][Ru][Cl] [CORM-2, tricarbonyldichlororuthenium (II) dimer]","TMRTG, range of values","[1]; 100 μM CORM-2, fibrinogen 100-800 mg/dL",2.83 to 4.00 min
same,increase in MRTG secondary to CORM-2 exposure,[1]; [3],> 80%
same,increase in TTG secondary to CORM-2 exposure,[1]; [3],> 80%
same,"MRTG, % of undiluted samples",[2]; [4],93%
same,"TTG, % of undiluted samples",[2]; [4],76%
same,"MRTG, % of undiluted samples",[2]; [5],67%
same,"TTG, % of undiluted samples",[2]; [5],50%
same,"MRTG, % of undiluted samples",[2]; [6],60%
same,"TTG, % of undiluted samples",[2]; [6],45%
same,"MRTG, % of undiluted samples",[2]; [7],22%
same,"TTG, % of undiluted samples",[2]; [7],17%
same,increase in MRTG with CORM-2 exposure,"[2]; samples diluted 50% with NS, no tPA, 100 μM CORM-2",12%
same,MRTG greater than matched diluted samples not exposed to CORM-2,"[2]; samples diluted with NS (except 50%), no tPA, 100 μM CORM-2",40-50%
same,increase in MRTG,[2]; [8],75%
same,increase in TTG,[2]; [8],59%

# — US8697747B2, “Enhancing coagulation or reducing fibrinolysis” (THe UAB Research Foundation, priority 2009, dated 2014)
